What was measured:
[1] = test system: subcutaneous MC-38 tumor; experiment: Tumor killing effect in vivo, subcutaneous MC-38 mouse tumor model; set-up: species or system C57BL/6N mice
Experimental: The antitumor activity of IONC-AAPH in vivo was evaluated with a subcutaneous MC-38 mouse tumor model. The subcutaneous tumor was induced by inoculating MC-38 cells into the right flank of respective C57BL/6N mice. The mice were randomly divided into 6 groups (n=3): (i) saline, (ii) AAPH, (iii) IONC, (iv) IONC-AAPH, (v) IONC+AMF, and (vi) IONC-AAPH+AMF. When the tumor volume reached 150-200 mm^3, the mice were intratumorally injected with saline, AAPH (2 mM), IONC (5 mg Fe/mL), and IONC-AAPH (5 mg Fe/mL), respectively. After injection the mice in IONC+AMF and IONC-AAPH+AMF groups were subjected to AMF for 1 h. The temperature of the tumors injected with IONC or IONC-AAPH increased rapidly and reached above 45° C. within 5 min, as measured by an infrared thermal camera.
After applying AMF, the temperature in the tumor was much higher than in other parts of the body. […]
Tumor killing effect of IONC-AAPH in vivo: All animal work was approved by the Institutional Animal Care and Use Committee (IACUC) of Rice University. […] The direct tumor killing effect of IONC-AAPH treatment was evaluated with subcutaneous tumor-bearing mice. […] The temperature in the tumor was measured using a high-resolution infrared (IR) camera (E95, Teledyne FLIR). The tumor size was measured daily with a digital caliper, and the tumor volume was calculated as follow: volume=length×width^2/2. […]

[2] = test system: MC-38 cells; experiment: Detection of DNA damage (γ-H2AX staining); type: cell-based, murine; settings: without AMF
Experimental: Hyperthermia treatment may induce lipid peroxidation, DNA damage, protein denaturation, and cell organelle disruption. In addition, carbon-centered free radicals generated from AAPH are highly reactive and can damage lipid, DNA, protein, and other biomolecules, leading to cell death. Thus, to understand the cell-killing mechanisms of IONC-AAPH under AMF, the effects of IONC-AAPH on various cellular components, including DNA, F-actin, mitochondria, gluthathione (GSH), and lipids, were evaluated. γ-H2AX is a sensitive marker of DNA damage and has been extensively used in research and clinical studies. It forms foci around the site of DNA double-strand break (DSB).
FIG. 7 depicts the quantification of γ-H2AX expression based on fluorescence intensity.
Detection of DNA damage: The DNA damage induced by IONC-AAPH treatment was detected by γ-H2AX staining. MC-38 cells were seeded in 4-compartment cell culture dishes and cultured overnight. Then the cells were treated with 300 μg Fe/mL of IONC-AAPH or IONC at 37° C. or under AMF for 90 min. Four hours after the treatment, the cells were fixed with 4% paraformaldehyde for 20 min, permeabilized with 0.2% Triton X-100 for 20 min and blocked with 3% bovine serum albumin (BSA) for 30 min at room temperature. […] The cells were imaged with a Nikon A1-Rsi confocal microscope and the fluorescence intensity of γ-H2AX was analyzed with ImageJ software.

[3] = test system: bone marrow-derived dendritic cells (BMDCs); experiment: Dendritic cell maturation, coculture with treated MC-38 cells; type: cell-based, C57BL/6N mice; settings: without AMF
Experimental: Dendritic cells (DCs) are a key type of antigen-presenting cells that play critical roles in initiating and regulating antitumor immune response. To determine if the immunogenic cell death induced by magnetotherapy can activate dendritic cells, bone marrow-derived dendritic cells (BMDCs) were cocultured with IONC-AAPH-treated MC-38 cells, together with the medium containing DAMPs, in a transwell system for 24 h. The maturation of dendritic cells was estimated as the percentage of CD80+CD86+ cells in CD11c+ cells. […] The percentage of mature DCs in IONC and IONC-AAPH groups was 2.1-fold of the blank.
Determination of Dendritic Cell Maturation: The bone marrow-derived dendritic cells (BMDCs) were prepared from the bone marrow of 8-week old C57BL/6N mice according to an established protocol. To determine the stimulatory effect on BMDCs, IONC-AAPH-treated MC-38 cells (together with the medium containing DAMPs) were cocultured with BMDCs for 24 h in a transwell system (pore size=3 μm). BMDCs only (without coculture) were included as the blank groups. The BMDCs were collected, blocked with CD16/CD32 antibody, and stained with PECD11c, FITC-CD80, and APC-CD86. The data were acquired on MA900 Multi-Application Cell Sorter (Sony) and analyzed using FlowJo software (Tree Star).

CC(C)(N=NC(C)(C)C(=N)N)C(=N)N.Cl.Cl [AAPH, 2,2′-azobis(2-amidinopropane) dihydrochloride]
tumor tissue damage (H&E, TUNEL) ([1]; without AMF): no tumor tissue damage | tumor weight ([1]; without applying AMF): only slightly reduced the tumor weight | γ-H2AX foci (DNA damage) [2]: low numbers of γ-H2AX foci | effect on DC maturation [3]: did not show a noticeable effect

From patent US20260027380A1, “TECHNIQUES FOR MAGNETIC NANOCLUSTER-BASED COMBINATION THERAPY” (William Marsh Rice University, priority 2022, published 2026)
